In ChEMBL document CHEMBL5120866, “Design and Synthesis of Novel Celastrol Derivatives as Potential Anticancer Agents against Gastric Cancer Cells” (J Nat Prod, 2022):
The source made the active and inactive calls. The calls are words filed in the database; no cut-off is given here.

Assays:
BGC-823 [1] = assay: Induction of apoptosis in human BGC-823 cells assessed as early apoptotic cells at 0.15 uM incubated for 24 hrs by annexin-V-FITC and PI staining based flow cytometry analysis (reference value: 2.4%); assay type: functional
BGC-823 [2] = assay: Antiproliferative activity against human BGC-823 cells assessed as cell growth inhibition incubated for 48 hrs by MTT assay; assay type: functional, cell-based; settings: BGC-823, 48 h
MCF7 = assay: Antiproliferative activity against human MCF7 cells assessed as cell growth inhibition incubated for 48 hrs by MTT assay; assay type: functional, cell-based; settings: MCF7, 48 h
HeLa = assay: Antiproliferative activity against human HeLa cells assessed as cell growth inhibition incubated for 48 hrs by MTT assay; assay type: functional, cell-based
BGC-823 [3] = assay: Induction of ROS generation in human BGC-823 cells assessed as increase in intracellular ROS level incubated for 24 hrs by DCFH-DA staining based fluorescence microscopic analysis; assay type: functional, cell-based; settings: dose 0.3-0.6 µM, DDE = dose-dependent effect
BGC-823 [4] = assay: Induction of JNK phosphorylation in human BGC-823 cells at 0.15 to 0.6 uM incubated for 24 hrs by Western blot analysis; assay type: functional, cell-based; settings: dose 0.15-0.6 µM
BGC-823 [5] = assay: Upregulation of Bcl-2 family proteins in human BGC-823 cells at 0.15 to 0.6 uM incubated for 24 hrs by Western blot analysis; assay type: functional, cell-based; settings: dose 0.15-0.6 µM
BGC-823 [6] = assay: Induction of apoptosis in human BGC-823 cells assessed as increase in cleaved PARP expression at 0.15 to 0.6 uM incubated for 24 hrs by Western blot analysis; assay type: functional, cell-based; settings: dose 0.15-0.6 µM
BGC-823 [7] = assay: Induction of apoptosis in human BGC-823 cells assessed as viable cells at 0.15 uM incubated for 24 hrs by annexin-V-FITC and PI staining based flow cytometry analysis (reference value: 96.3%); assay type: functional; settings: read-out: Activity
BGC-823 [8] = assay: Induction of apoptosis in human BGC-823 cells assessed as viable cells at 0.3 uM incubated for 24 hrs by annexin-V-FITC and PI staining based flow cytometry analysis (reference value: 96.3%); assay type: functional; settings: read-out: Activity
BGC-823 [9] = assay: Induction of apoptosis in human BGC-823 cells assessed as viable cells at 0.6 uM incubated for 24 hrs by annexin-V-FITC and PI staining based flow cytometry analysis (reference value: 96.3%); assay type: functional; settings: read-out: Activity
BGC-823 [10] = assay: Induction of apoptosis in human BGC-823 cells assessed as early apoptotic cells at 0.3 uM incubated for 24 hrs by annexin-V-FITC and PI staining based flow cytometry analysis (reference value: 2.4%); assay type: functional
BGC-823 [11] = assay: Induction of apoptosis in human BGC-823 cells assessed as late apoptotic cells at 0.3 uM incubated for 24 hrs by annexin-V-FITC and PI staining based flow cytometry analysis (reference value: 0.6%); assay type: functional
BGC-823 [12] = assay: Induction of apoptosis in human BGC-823 cells assessed as necrotic cells at 0.15 uM incubated for 24 hrs by annexin-V-FITC and PI staining based flow cytometry analysis (reference value: 0.6%); assay type: functional
BGC-823 [13] = assay: Induction of apoptosis in human BGC-823 cells assessed as necrotic cells at 0.6 uM incubated for 24 hrs by annexin-V-FITC and PI staining based flow cytometry analysis (reference value: 0.6%); assay type: functional
BGC-823 [14] = assay: Downregulation of cyclin B1 protein expression in human BGC-823 cells at 0.15 to 0.6 uM incubated for 24 hrs by Western blot analysis; assay type: functional, cell-based; settings: dose 0.15-0.6 µM
BGC-823 [15] = assay: Downregulation of Cdc2 protein expression in human BGC-823 cells at 0.15 to 0.6 uM incubated for 24 hrs by Western blot analysis; assay type: functional, cell-based; settings: dose 0.15-0.6 µM
BGC-823 [16] = assay: Induction of cell cycle arrest in human BGC-823 cells assessed as accumulation of cells at G0/G1 phase at 0.15 uM incubated for 24 hrs by PI staining based flow cytometry method (reference value: 50.66%); assay type: functional
BGC-823 [17] = assay: Induction of cell cycle arrest in human BGC-823 cells assessed as accumulation of cells at G0/G1 phase at 0.3 uM incubated for 24 hrs by PI staining based flow cytometry method (reference value: 50.66%); assay type: functional
BGC-823 [18] = assay: Induction of cell cycle arrest in human BGC-823 cells assessed as accumulation of cells at G0/G1 phase at 0.6 uM incubated for 24 hrs by PI staining based flow cytometry method (reference value: 50.66%); assay type: functional
BGC-823 [19] = assay: Induction of cell cycle arrest in human BGC-823 cells assessed as accumulation of cells at S phase at 0.3 uM incubated for 24 hrs by PI staining based flow cytometry method (reference value: 26.01%); assay type: functional
BGC-823 [20] = assay: Induction of cell cycle arrest in human BGC-823 cells assessed as accumulation of cells at G2/M phase at 0.15 uM incubated for 24 hrs by PI staining based flow cytometry method (reference value: 22.86%); assay type: functional
BGC-823 [21] = assay: Induction of cell cycle arrest in human BGC-823 cells assessed as accumulation of cells at G2/M phase at 0.3 uM incubated for 24 hrs by PI staining based flow cytometry method (reference value: 22.86%); assay type: functional
BGC-823 [22] = assay: Antitumor activity against human BGC-823 cells xenografted in athymic BALB/c nude mouse assessed as tumor growth inhibition rate at 1.5 mg/kg, ip measured every 2 days for 21 days by curson caliper method relative to control; assay type: functional; settings: BGC-823, 504 h, time 21 day, read-out: TGI
BGC-823 [23] = assay: Antitumor activity against human BGC-823 cells xenografted in athymic BALB/c nude mouse assessed increase in ROS level in tumor tissue by measuring increase in red fluorescence at 1.5 mg/kg, ip measured after 21 days by DHE staining based fluorescence microscopic analysis; assay type: functional, organism-based; settings: time 21.0 day
[24] = Toxicity in athymic BALB/c nude mouse assessed as change in body weight at 1.5 mg/kg, ip measured every 2 days for 21 days; assay type: organism-based; settings: in vivo, 504 h, time 21 day
[25] = Toxicity in athymic BALB/c nude mouse assessed as effect on liver at 1.5 mg/kg, ip measured after 21 days by H and E staining based histopathological analysis; assay type: organism-based; settings: in vivo, 504 h, time 21 day
[26] = Toxicity in athymic BALB/c nude mouse assessed as effect on spleen at 1.5 mg/kg, ip measured after 21 days by H and E staining based histopathological analysis; assay type: organism-based; settings: in vivo, 504 h, time 21 day
[27] = Toxicity in athymic BALB/c nude mouse assessed as effect on lung at 1.5 mg/kg, ip measured after 21 days by H and E staining based histopathological analysis; assay type: organism-based; settings: in vivo, 504 h, time 21 day
[28] = Toxicity in athymic BALB/c nude mouse assessed as effect on kidney at 1.5 mg/kg, ip measured after 21 days by H and E staining based histopathological analysis; assay type: organism-based; settings: in vivo, 504 h, time 21 day
BGC-823 [29] = assay: Antitumor activity against human BGC-823 cells xenografted in athymic BALB/c nude mouse assessed as reduction in mitosis at 1.5 mg/kg, ip measured after 21 days by H and E staining based analysis; assay type: functional, organism-based; settings: time 21.0 day
BGC-823 [30] = assay: Antitumor activity against human BGC-823 cells xenografted in athymic BALB/c nude mouse assessed as increase in cell necrosis at 1.5 mg/kg, ip measured after 21 days by H and E staining based analysis; assay type: functional, organism-based; settings: time 21.0 day
BGC-823 [31] = assay: Antiproliferative activity against human BGC-823 cells assessed as cell growth inhibition at 0.5 uM incubated for 48 hrs by MTT assay relative to control; assay type: functional

Structure (SMILES): CCOC(=O)c1cnn(CCCOC(=O)[C@]2(C)CC[C@]3(C)CC[C@]4(C)C5=CC=C6C(=CC(=O)C(O)=C6C)[C@]5(C)CC[C@@]4(C)[C@@H]3C2)c1
- Activity (BGC-823 [1]): 4.4%
- IC50 (BGC-823 [2]): 210 nM
- IC50 (MCF7): 390 nM
- IC50 (HeLa): 480 nM
- Activity (BGC-823 [3]): Dde
- Activity (BGC-823 [4]): Active
- Activity (BGC-823 [5]): Active
- Activity (BGC-823 [6]): Active
- viability at 0.15 µM (BGC-823 [7]): 94.9%
- viability at 0.3 µM (BGC-823 [8]): 78.2%
- viability at 0.6 µM (BGC-823 [9]): 50.9%
- Activity (BGC-823 [10]): 16.5%
- Activity (BGC-823 [11]): 4.8%
- Activity (BGC-823 [12]): 0.2%
- Activity (BGC-823 [13]): 1.5%
- Activity (BGC-823 [14]): Active
- Activity (BGC-823 [15]): Active
- Activity (BGC-823 [16]): 48.17%
- Activity (BGC-823 [17]): 46.1%
- Activity (BGC-823 [18]): 37.39%
- Activity (BGC-823 [19]): 23.91%
- Activity (BGC-823 [20]): 23.89%
- Activity (BGC-823 [21]): 27.71%
- inhibition in vivo at 1.5 mg/kg (BGC-823 [22]): 89.8%
- Activity (BGC-823 [23]): Active
- Activity [24]: Non-Toxic
- Activity [25]: Non-Toxic
- Activity [26]: Non-Toxic
- Activity [27]: Non-Toxic
- Activity [28]: Non-Toxic
- Activity (BGC-823 [29]): Active
- Activity (BGC-823 [30]): Active
- inhibition at 0.5 µM (BGC-823 [31]): > 50%
